# PubChem BioAssay (NCI)
#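 The concentration for 50% growth inhibition is given as GI50. TGI: total growth inhibition.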
# Key:
# Assay in all cases: growth of human tumour cells (NCI), 384-well format
# [1] = tested on: 786-0 renal
# [2] = tested on: A498 renal
# [3] = tested on: A549 NSCLC
# [4] = tested on: ACHN renal
# [5] = tested on: BT-549 breast
# [6] = tested on: CAKI-1 renal
# [7] = tested on: CCRF-CEM leukemia
# [8] = tested on: COLO 205 colon
# [9] = tested on: DU-145 prostate
# [10] = tested on: EKVX NSCLC
# [11] = tested on: HCC-2998 colon
# [12] = tested on: HCT-116 colon
# [13] = tested on: HCT-15 colon
# [14] = tested on: HL-60(TB) leukemia
# [15] = tested on: HOP-62 NSCLC
# [16] = tested on: HOP-92 NSCLC
# [17] = tested on: HS 578T breast
# [18] = tested on: HT29 colon
# [19] = tested on: IGROV1 ovarian
# [20] = tested on: K-562 leukemia
# [21] = tested on: KM12 colon
# [22] = tested on: LOX IMVI melanoma
# [23] = tested on: M14 melanoma
# [24] = tested on: MALME-3M melanoma
# [25] = tested on: MCF7 breast
# [26] = tested on: MDA-MB-231 breast
# [27] = tested on: MDA-MB-435 melanoma
# [28] = tested on: MDA-MB-468 breast
# [29] = tested on: MOLT-4 leukemia
# [30] = tested on: NCI-H226 lung
smiles,measurement,setting,value
CCn1nc(C2CCN(C(=O)CCO)CC2)nc1-c1cnc(N)c(-c2nnc(C(C)(C)C)o2)n1,GI50,[1],7.59 µM
same,TGI,[1],> 100 µM
same,GI50,[2],18.1 µM
same,TGI,[2],> 100 µM
same,GI50,[3],5.24 µM
same,TGI,[3],> 100 µM
same,GI50,[4],15.5 µM
same,TGI,[4],> 100 µM
same,GI50,[5],6.24 µM
same,TGI,[5],54.3 µM
same,GI50,[6],4.7 µM
same,TGI,[6],> 100 µM
same,GI50,[7],6.7 µM
same,TGI,[7],23.4 µM
same,GI50,[8],6.8 µM
same,TGI,[8],23.9 µM
same,GI50,[9],13.7 µM
same,TGI,[9],100 µM
same,GI50,[10],3.08 µM
same,TGI,[10],30 µM
same,GI50,[11],7.79 µM
same,TGI,[11],47 µM
same,GI50,[12],23.2 µM
same,TGI,[12],> 100 µM
same,GI50,[13],15.8 µM
same,TGI,[13],> 100 µM
same,GI50,[14],0.377 µM
same,TGI,[14],12.2 µM
same,GI50,[15],42.7 µM
same,TGI,[15],> 100 µM
same,GI50,[16],3.35 µM
same,TGI,[16],> 100 µM
same,GI50,[17],6.89 µM
same,TGI,[17],31.8 µM
same,GI50,[18],3.02 µM
same,TGI,[18],25.5 µM
same,GI50,[19],0.32 µM
same,TGI,[19],1.81 µM
same,GI50,[20],17.3 µM
same,TGI,[20],44.7 µM
same,GI50,[21],13.3 µM
same,TGI,[21],32.3 µM
same,GI50,[22],10.1 µM
same,TGI,[22],23.8 µM
same,GI50,[23],16 µM
same,TGI,[23],> 100 µM
same,GI50,[24],7.64 µM
same,TGI,[24],59.7 µM
same,GI50,[25],0.2 µM
same,TGI,[25],> 100 µM
same,GI50,[26],80.9 µM
same,TGI,[26],> 100 µM
same,GI50,[27],11.3 µM
same,TGI,[27],> 100 µM
same,GI50,[28],2.8 µM
same,TGI,[28],17.1 µM
same,GI50,[29],1.11 µM
same,TGI,[29],8.87 µM
same,GI50,[30],24.6 µM
